Where two headings read alike, the source gives them in different places.
Tests used:
[1] = system: tubulin / microtubule assembly; settings: background; cited from earlier work
[2] = system: leukemias and solid tumors; settings: background; cited from earlier work
tolpoisomerase II = settings: increased single and double strand breaks in DNA, background; cited from earlier work
[3] = system: 60 human tumor cell line screen; assay: NCI 60 human tumor cell line screen, in vitro antiproliferative activity (sulforhodamine B assay); format: cell-based; settings: for Percentage of cell lines affected at the given concentration: at the GI50 bound or range given on the same line of Table 3
Procedure: The NCI […] Screening Procedure is described in Monks et al., J. Natl. Cancer Inst., 83: […], as are the origins and processing of the cell lines. In summary, cell suspensions that are diluted according to the particular cell type and the expected target cell density (5000-40,000 cells per well based on cell growth characteristics) are added by pipet (100 μL) into 96-well microtiter plates. Inoculates are allowed a preincubation period of 24 hours at 37° C. for stabilization. Dilutions at twice the intended test concentration were added at time zero in 100 μL aliquots to the microtiter plate wells. Usually, test compounds are evaluated at five 10-fold dilutions. In routine testing, the highest well concentration is 10^-4 M, but for the standard agents the highest well concentration used depends on the agent. Incubations last for 48 hours in 5% CO2 atmosphere and 100% relative humidity. The cells are assayed by using the sulforhodamine B assay. A plate reader is used to read the optical densities, and a microcomputer processes the optical densities into the special concentration parameters.

antitumor activity = settings: background; cited from earlier work
[4] = background; cited from earlier work
cell division = settings: background; cited from earlier work
antiviral activity = settings: background; cited from earlier work
[5] = system: nucleoside transport in mammalian cells; settings: background; cited from earlier work
[6] = system: standard panel of 12 human tumor cell lines; assay: Hollow fiber assay, preliminary in vivo testing; parameters: species or system human tumor cell lines in mice; settings: i.p. injection once daily, 4 doses, 2 dose levels
Procedure: Preliminary in vivo testing was conducted by the hollow fiber assay on the oxabicyclooctane and the dioxatricyclodecanes identified as sufficiently active in the large scale in vitro cell screens. Each compound is tested against a standard panel of 12 human tumor cell lines, including NCI-H23, […], MDA-MB-231, MDA-MB-435, SW-620, COLO 205, LOX IMVI, UACC-62, OVCAR-3, OVCAR-5, U251, and SF-295. The cell lines are cultivated in RPMI-1640 containing 10% FBS and 2 mM glutamine. On the day preceding hollow fiber preparation, the cells are given a supplementation of fresh medium to maintain log phase growth. […] On the day of implantation, samples of each tumor cell line is quantitated for viable cell mass by a stable endpoint MTT assay so that the time 0 cell mass is known. Thus, the cytostatic and cytocidal capacities of the test compound can be assessed. […] Each agent is assessed by intraperitoneal injection at 2 dose levels with 3 mice/dose/experiment. […] The optical density of each sample is determined spectropphotomnetrically at 540 nm and the mean of each treatment group is calculated. The percent net cell growth in each treatment group is calculated and compared to the percent net cell growth in the vehicle treated controls. Each compound is assessed in a total of 4 experiments (3 cell lines/experiment×4 experiments=12 cell lines). […]

## COc1cc([C@@H]2c3cc4c(cc3[C@@H](O[C@@H]3O[C@@H]5CO[C@@H](C)O[C@H]5[C@H](O)[C@H]3O)[C@H]3COC(=O)[C@H]23)OCO4)cc(OC)c1O [etoposide]
[1]
  Inhibition of microtubule assembly: not inhibitors of microtubule assembly
[2]
  Effectiveness in the treatment of leukemias and solid tumors: effective in the treatment of a variety of leukemias and solid tumors
Tolpoisomerase II
  Interaction and inhibition of topoisomerase II: interaction and inhibition of the enzyme tolpoisomerase II

## COc1ccc([C@]23OC[C@H](Cc4cc(OC)c(OC)cc42)[C@@H]3CO)cc1OC [No. 5]
[3]; 60 human tumor cell lines, 48 h, for the percentage of cell lines given beside it, read-out: GI50 (growth inhibition, 50%), GL50 [sic] in the source
  GI50: > 100 µM
[3]
  Percentage of cell lines affected at the given concentration: 96%

## COc1cc([C@H]2c3cc(O)c(OC)cc3C[C@H]3C(=O)OC[C@H]23)ccc1O [ACON, α-Conidendrin]
Antitumor activity
  Antitumor / biological activity: biologically inactive

## COc1cc([C@H]2c3cc(O)c(OC)cc3C[C@@H]3C(=O)OC[C@H]23)ccc1O [BCON, β-conidendrin]
Antitumor activity
  Antitumor / biological activity: biologically inactive

## COc1cc([C@@H]2c3cc4c(cc3[C@H](O)[C@H]3COC(=O)[C@@H]23)OCO4)cc(OC)c1OC (stereo in doubt) [picropodophyllotoxin]
Antitumor activity
  Antitumor / biological activity: biologically inactive

## COc1cc([C@@H]2c3cc4c(cc3[C@@H](O[C@@H]3O[C@@H]5CO[C@@H](c6cccs6)O[C@H]5[C@H](O)[C@H]3O)[C@H]3COC(=O)[C@H]23)OCO4)cc(OC)c1O [teniposide]
[1]
  Inhibition of microtubule assembly: not inhibitors of microtubule assembly
[2]
  Effectiveness in the treatment of leukemias and solid tumors: effective in the treatment of a variety of leukemias and solid tumors
Tolpoisomerase II
  Interaction and inhibition of topoisomerase II: interaction and inhibition of the enzyme tolpoisomerase II

## COc1cc([C@@H]2c3cc4c(cc3[C@H](O)[C@H]3COC(=O)[C@H]23)OCO4)cc(OC)c1OC [PT, podophyllotoxin]
[4]
  Toxicity: highly toxic
[1]
  Inhibition of microtubule assembly: inhibiting the assembly of tubulin into microtubules
Antitumor activity
  Antitumor / biological activity: has antiviral and antitumor activity
Cell division
  Arrest of cell division: arrest of cell division at the mitotic stage of the cell cycle
Antiviral activity
  Antiviral activity: has antiviral and antitumor activity
[5]
  Inhibition of nucleoside transport: inhibit nucleoside transport in mammalian cells

## COc1cc([C@]23OC[C@H](Cc4cc5c(cc42)OCO5)[C@@H]3CO)cc(OC)c1OC [oxabicyclooctane]
[6]; i.p. fiber implants
  Intraperitoneal score, hollow fiber assay: 14
[6]; s.c. fiber implants
  Subcutaneous score, hollow fiber assay: 2

## COc1ccc([C@]23OC[C@H](Cc4cc(OC)c(OC)cc42)[C@@H]3COC(C)=O)cc1OC [No. 6]
[3]
  Percentage of cell lines affected at the given concentration: 10%

## COc1cc([C@]23OC[C@H](Cc4cc5c(cc42)OCO5)[C@@H]3CO)cc(OC)c1OC [No. 2]
[3]; GI50 ranging from less than 10^-8 to 10^-5 molar
  Percentage of cell lines with the GI50 range: 26%
[3]; observed for 26% of cell lines, read-out: GI50 range observed
  GI50: 0.01 to 10 µM

## 7-acetoxy-6-methoxytetralin-1-one [compound 87]
[3]
  Percentage of cell lines affected at the given concentration: 93%
